Data as given in patent US20110034373A1, “USE OF AN FGF-21 COMPOUND AND A GLP-1 COMPOUND FOR THE TREATMENT OF OBESITY” (ELI LILLY AND COMPANY, priority 2007, published 2011).

B1: FGF-21: FGF-21 compound of Table 1: human FGF-21, printed as 'human FGF-2 (SEQ ID NO: 1)' (protein, listed as Homo sapiens)
chain: MDSDETGFEHSGLWVSVLAGLLGACQAHPIPDSSPLLQFGGQVRQRYLYTDDAQQTEAHLEIREDGTVGGAADQSPESLLQLKALKPGVIQILGVKTSRFLCQRPDGALYGSLHFDPEACSFRELLLEDGYNVYQSEAHGLPLHLPGNKSPHRDPAPRGPARFLPLPGLPPALPEPPGILAPQPPDVGSSDPLSMVGPSQGRSPSYAS

Test system: Diet-induced obese (DIO) male C57/B16 mice
Test: Effect of combination treatment with GLP-1 and FGF-21 on body weight in diet-induced obese mice
Assay type: in vivo
Settings: GLP-1 compound 3 nmol/kg/day continuous s.c. infusion (alzet pump), n=8
Method: Diet-induced obese (DIO) male C57/B16 mice (Harlan: Va.) maintained on a calorie rich diet (TD95217, Teklad, Madison, Wis.) since weaning are used, DIO is established by ad libitum feeding for at least 7 weeks of a diet consisting of 40% fat, 39% carbohydrate, and 21% protein caloric content (TD95217). Animals are individually housed in a temperature-controlled (24° C.) facility with 12 hour light/dark cycle (lights on 2200) and free access to food (TD95217) and water. After a minimum of 2 weeks acclimation to the facility, the mice are randomized according to their body weight, so each experimental group of animals would have similar body weight.
Body composition of DIO male C57/B16 mice is determined by using QNMR analysis 1 day prior to initiation of treatment. Combination treatment is administered with two delivery methods. A FGF-21 compound (1 mg/kg) is subcutaneously injected once a day and a GLP-1 compound (3 nmol/kg/day) is delivered by continuous subcutaneous infusion with alzet pump. The experimental groups are as follow: One group (“Vehicle”) of mice (n=8) receives PBS (11.4 μL/day) and a daily subcutaneous injection of 0.05 mL/10 g of PBS. Another group (“FGF-21”) of mice (n=8) receives 11.4 μL/day of PBS using the alzet pump and a daily subcutaneous injection of 1 mg/kg of FGF-21. The “GLP-1” group of mice receives 3 nmol/kg/day of a GLP-1 compound through an alzet pump and a daily subcutaneous injection of 0.05 mL/10 g of PBS. The “GLP-1+FGF-21” group of mice receives 3 nmol/kg/day of a GLP-1 compound through an alzet pump and a daily subcutaneous injection of 1 mg/kg of a FGF-21 compound. Injections occur prior to the onset of the dark photoperiod. Starting weight values are measured after implantation of alzet pumps on Day 1. Body weights are recorded in conjunction with daily dosing. Average weight changes compared to starting weights of a particular treatment group, including vehicle, are determined. Average daily weight changes are normalized to average of daily weight change of Vehicle group and are reported in Table 1 (i.e., (Average weight change of Treatment group)−(Average weight change of Vehicle group)). For all treatment groups n=8.
Data in Table 1 represent results where the FGF-21 compound is human FGF-2 (SEQ ID NO: 1) and where the GLP-1 compound is Val^8-Glu^22-Ile^33-Pro^37-Ser^38-Ser^39-Gly^40-Ala^41-Pro^42-Pro^43-Pro^44-Ser^45-GLP-1 (SEQ ID NO: 19).

[1] = Day 1 (starting weight), FGF-21 compound 1 mg/kg s.c. once a day
[2] = Day 5, FGF-21 compound 1 mg/kg s.c. once a day
[3] = Day 10, FGF-21 compound 1 mg/kg s.c. once a day
[4] = Day 15, FGF-21 compound 1 mg/kg s.c. once a day

Molecule	Average Weight Change Normalized to Vehicle Treated Mice [1]	Average Weight Change Normalized to Vehicle Treated Mice [2]	Average Weight Change Normalized to Vehicle Treated Mice [3]	Average Weight Change Normalized to Vehicle Treated Mice [4]
Val^8-Glu^22-Ile^33-Pro^37-Ser^38-Ser^39-Gly^40-Ala^41-Pro^42-Pro^43-Pro^44-Ser^45-GLP-1 (HVEGTFTSDVSSYLEEQAAKEFIAWLIKGGPSSGAPPPS)	0 g	-1.01 g	-1.99 g	-2.50 g
B1	0 g	-0.45 g	-1.94 g	-2.85 g
